For orientation: LD50 means the dose at which mortality reaches 50%. The low end stands for a more toxic substance, the high end for a less toxic substance. Broadly, the inhibition is how much of the control response was suppressed.

Data set [1] can be described thus: LD50, intravenous, mice. In kind it is in vivo. Conditions: female mice, mortalities within 1 week; for LD50 at 168 h: mouse, in vivo. Here is the method: The test material was administered intravenously to 5 female mice in five increasing doses. Mortalities were recorded within 1 week, and the LD50 was determined with the aid of statistical calculations.
The subject of data set [2] is syncytium formation. Conditions: literature (Mohan et al.; Tan et al.; Baba et al.); cited from earlier work.
Data set [3] has as its system TA98, TA1535, TA1537, TA1538, TA100 and W2P2uvr. The data set is described as follows: Ames Test (in the presence of S9). The data set is classed as cell-based, Salmonella typhimurium. Conditions: for Ames Test, specific mutagenic activity: the higher the value, the higher the mutagenicity. An excerpt:
Six Salmonella typhimuriumstrai strains, TA98, TA1535, TA1537, TA1538, TA100 and W2P2uvr were used in this experiment.

Data set [4] concerns the target T1, recombinant reverse transcriptase (RT) (Human immunodeficiency virus type 1 group M subtype B, UniProt P04585).
T1 construct: purchased Worthington Biochemical Corporation
The data set can be described thus: Reverse transcriptase inhibition assay. The data set is classed as biochemical, HIV-1. Here is the method:
Inhibition of recombinant reverse transcriptase (RT) was performed by using commercially available Boehringer Mannheim RT assay kit (Cat. No. 1468 120) based on incorporation of digoxigenin labeled dUTP into DNA. Recombinant enzyme from HIV-1 was purchased from Worthington Biochemical Corporation. The level of anti-RT activity in the sample was determined by measurement of absorbance using an ELISA reader at 405 nm.

Data set [5] has as its system HIV-1 RF. The data set is described as follows: Antiviral assay, Experimental Protocol I (compound added after infection). In kind it is cell-based. Particulars: Human immunodeficiency virus 1, 240 h, 10% FCS, p24 ELISA, read-out: % Inhibition (after day 10); for inhibition at 0.6 µg/mL: 0.6 μg/ml; for inhibition at 1.25 µg/mL: 1.25 μg/ml; for inhibition at 2.5 µg/mL: 2.5 μg/ml; for inhibition at 5 µg/mL: 5 μg/ml. A general note: An ELISA detects its analyte on a solid surface through an enzyme-linked reagent.

Data set [6] deals with HIV-1 patient isolate IH. The data set is described as follows: Inhibition of HIV-1 patient isolate IH in CD4^+ cells. The data set is classed as cell-based. Particulars: Human immunodeficiency virus 1, 288 h, 10% FCS, read-out: % Inhibition (after day 12). Here is the method:
The inhibitory effects of additional naphthalenesulfonic acid compounds were tested as follows: Experimental Details:
PBMCs were activated for 48 hours in conditioned medium containing PHA at a concentration of 4 μg/ml. Thereafter 10^6 cells were plated in each of the 24 well plates containing 10% FCS or 50% FCS. The test compound, previously dissolved in a glucose solution (1 mg/ml), was then added to each of the wells to achieve the appropriate concentration. The plate was then incubated overnight (about 15 hours) after which 50 μl of cell-free HIV-1 patient isolate was added to each well. The plates were incubated for further 6 to 8 hours after which all free floating solution of virus was washed off. Washing was performed four times.
After removal of the virus, all cultures were resuspended in conditioned medium containing 10% FCS.
For control experiments virus growth was monitored in either 10% FCS or 50% FCS throughout the observation period (15 days).

Data set [7] relates to reverse transcriptase. Particulars: literature (Balzarini et al.); cited from earlier work.
Data set [8] deals with retroviruses. Conditions: literature (Ito et al.); cited from earlier work.
In data set [9] the test system is standard Ames Test. Conditions: literature (K-T. Chung et al); cited from earlier work.
Data set [10] deals with HIV rgp120 / CD4 cells. Particulars: literature (Balzarini et al.); cited from earlier work.

On to `CC1=C/C(=C(\c2ccc(N)c(S(=O)(=O)[O-])c2)c2ccc(N)c(S(=O)(=O)O)c2)C=C(S(=O)(=O)[O-])C1=N.[Na+].[Na+]` [Fuchsin Acid, reference compound], for which, in data set [1] (10080 min), the LD50 was 100 mg/kg. Further, the “inhibition of syncytium formation” value in data set [2] is listed as “inhibitors of syncytium formation”.
For the compound `COc1cc(N=Nc2c(S(=O)(=O)O)cc3cc(S(=O)(=O)O)cc(NC(=O)c4cccc5ccccc45)c3c2O)c(OC)cc1N=Nc1c(S(=O)(=O)O)cc2cc(S(=O)(=O)O)cc(NC(=O)c3ccc(Cl)cc3Cl)c2c1O` [Compound 1], the “Ames Test result” value in data set [3] was “Negative”. For the same compound, the LD50 at 168 h in data set [1] was 150 mg/kg. Further, the inhibition at 0.5 µM in data set [4] worked out at 70%. In addition, in data set [5], the inhibition at 0.6 µg/mL came out at 98%, the inhibition at 1.25 µg/mL is 100%, the inhibition at 2.5 µg/mL was found to be 100% and the inhibition at 5 µg/mL came to 100%. The inhibition at 10 µg/mL in data set [6] (10 μg/ml) stood at 50%. For the same compound, the inhibition at 20 µg/mL in data set [6] (20 μg/ml) amounted to 100%.
As to `Cc1ccc(C(=O)Nc2ccc(S(=O)(=O)O)c3cc(S(=O)(=O)O)cc(S(=O)(=O)O)c23)cc1NC(=O)c1cccc(NC(=O)Nc2cccc(C(=O)Nc3cc(C(=O)Nc4ccc(S(=O)(=O)O)c5cc(S(=O)(=O)O)cc(S(=O)(=O)O)c45)ccc3C)c2)c1` [Suramin, reference compound], the LD50 at 168 h in [1] worked out at 40 mg/kg. In data set [4], the “inhibitory effect against reverse transcriptase (in words)” value was “inhibitory effect against reverse transcriptase” and the inhibition at 0.5 µM amounted to 68%. Besides, in data set [5], the inhibition at 1.25 µg/mL was found to be 0%, the inhibition at 2.5 µg/mL was found to be 0% and the inhibition at 5 µg/mL turned out to be 0%. Further, the “inhibition of reverse transcriptase” value in data set [7] was “inhibitors of reverse transcriptase”.
As to dextran sulfate, the anti-retroviral activity entry in [8] is “known anti-retroviral compounds”.
As to `COc1cc(-c2ccc(/N=N/c3ccc4c(S(=O)(=O)O)cc(S(=O)(=O)O)c(N)c4c3O)c(OC)c2)ccc1/N=N/c1ccc2c(S(=O)(=O)O)cc(S(=O)(=O)O)c(N)c2c1O` [CSB, Chicago Sky Blue, reference compound], in data set [3], the “Ames Test result” value was “Positive” and the “Ames Test, specific mutagenic activity” value was 10 colony no/μg. This compound came in with an LD50 at 168 h in [1] of 100 mg/kg. The “inhibitory effect against reverse transcriptase (in words)” value in data set [4] is on record as “inhibitory effect against reverse transcriptase”. Moreover, in data set [5], the inhibition at 0.6 µg/mL was 37%, the inhibition at 1.25 µg/mL amounted to 70% and the inhibition at 2.5 µg/mL was 90%. The “mutagenic effects in Ames Test” value in data set [9] is “strong mutagenic effects”.
For `Cc1cc(-c2ccc(/N=N/c3ccc4c(S(=O)(=O)O)cc(S(=O)(=O)O)c(N)c4c3O)c(C)c2)ccc1/N=N/c1ccc2c(S(=O)(=O)O)cc(S(=O)(=O)O)c(N)c2c1O` [Evans Blue, reference compound], in data set [3], the “Ames Test result” value is “Positive” and the “Ames Test, specific mutagenic activity” value amounted to 10 colony no/μg. In data set [1], this compound showed an LD50 at 168 h of 100 mg/kg. For the same compound, the inhibition at 0.5 µM in data set [4] was found to be 48%. Also, the “mutagenic effects in Ames Test” value in data set [9] is given as “strong mutagenic effects”. Also, the “inhibition of interaction of HIV rgp120 with CD4 cells” value in data set [10] is recorded as “inhibitor of the interaction of HIV rgp120 with CD4 cells”.
Consider `Cc1cc(NC(=O)Nc2ccc(N=Nc3cc(S(=O)(=O)[O-])c4cccc(S(=O)(=O)[O-])c4c3)c(C)c2)ccc1N=Nc1cc(S(=O)(=O)[O-])c2cccc(S(=O)(=O)[O-])c2c1.[Na+].[Na+].[Na+].[Na+]` [Direct Yellow 50], for which, in data set [7], the “inhibition of reverse transcriptase” value is “inhibitors of reverse transcriptase”.

Values taken from patent US5589510A, “Method for inhibiting retroviral infection by administering a naphthalenesulfonic acid compound” (priority 1995, dated 1996).
